Results from patent publication EP0329198B1, “Base modified oligo- and polynucleotides and methods of preparing and using same” (priority 1981, dated 1982).
Where two headings read alike, the source gives them in different places.

Columns and labels:
[1] = test system: CHO cells, permeabilized by treatment with lysolecithin; assay: Polymerase substrate function in permeabilized cells
streptavidin = streptavidin (Streptomyces avidinii, UniProt P22629); conditions: affinity of streptavidin for biotin; cited from earlier work
Chain of streptavidin (P22629 25-183): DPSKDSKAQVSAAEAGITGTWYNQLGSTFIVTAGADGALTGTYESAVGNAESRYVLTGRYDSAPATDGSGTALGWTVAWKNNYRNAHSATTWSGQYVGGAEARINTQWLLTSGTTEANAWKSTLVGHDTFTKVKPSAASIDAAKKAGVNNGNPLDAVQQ

avidin = avidin (Gallus gallus, UniProt P02701); conditions: cited from earlier work
Chain of avidin (P02701 25-152): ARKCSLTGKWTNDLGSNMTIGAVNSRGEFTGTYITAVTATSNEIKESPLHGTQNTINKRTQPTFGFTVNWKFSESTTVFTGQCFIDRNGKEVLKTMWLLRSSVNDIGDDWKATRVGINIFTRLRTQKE

Streptavidin-Sepharose = Streptavidin-Sepharose (Streptomyces avidinii, UniProt P22629)
Chain of Streptavidin-Sepharose (P22629 25-183): as the sequence (P22629 25-183) above
Text: Its preparation and purification is described in Hoffman, et al., Proc. Natl. Acad. Sci., 77, 4666 (1980).

O=C(CCCCC1SCC2NC(=O)NC21)NC/C=C/c1cn(C2CC(O)C(COP(=O)(O)OP(=O)(O)OP(=O)(O)O)O2)c(=O)[nH]c1=O (stereo not shown) [Bio-dUTP, biotinyl-dUTP]
polymerase substrate function [1]: function as a polymerase substrate

O=C(O)CCCC[C@@H]1SC[C@@H]2NC(=O)N[C@@H]21 [biotin]
Kassn (streptavidin): 10^15

N=C1N[C@H]2[C@H](CS[C@H]2CCCCC(=O)O)N1 [iminobiotin]
binding to avidin relative to biotin (avidin): less tightly than biotin

Iminobiotinyl-dUTP [^3H-IB-dUTP]
% Retained on SA-Sepharose (Streptavidin-Sepharose; Load - 10 mM Tris-HCl, 8.3, 50 mM NaCl): 100%
% Retained on SA-Sepharose (Streptavidin-Sepharose; eluent (1) 0.1 M NaCl): 100%
% Retained on SA-Sepharose (Streptavidin-Sepharose; eluent (2) 1.0 M NaCl): 100%
% Retained on SA-Sepharose (Streptavidin-Sepharose; eluent (3) 8 M Urea): 97.5%
% Retained on SA-Sepharose (Streptavidin-Sepharose; eluent (4) 6 M guanidine-HCl): 97.0%
% Retained on SA-Sepharose (Streptavidin-Sepharose; eluent (5) 50 mM NH4-acetate, pH 4.0): <0.01%
% Retained on SA-Sepharose (Streptavidin-Sepharose; eluent (6) 50 mM NH4-acetate, pH 4.0 2 mM biotin): <0.01%
